Values of other authors in patent US20070166816A1, “Assay device that analyzes the absorption, metabolism, permeability and/or toxicity of a candidate compound” (Surface Logix, Inc., priority 2002, published 2007).

Experiments:
[1] = previously characterized in humans; qualitative grade
Caco-2 cells = conditions: previously characterized in Caco-2 assays; qualitative grade

Compound	Absorbance in vivo [1]	Absorbance in vitro (Caco-2 cells)
O=c1[nH]cc(F)c(=O)[nH]1 [5-Fluorouracil]	Low	Very High
NS(=O)(=O)c1cc2c(cc1Cl)N=CNS2(=O)=O [Chlorothiazide]		Low
NS(=O)(=O)c1cc(C(=O)O)c(NCc2ccco2)cc1Cl [Furosemide]	Moderate	
OC[C@@H](O)[C@@H](O)[C@H](O)[C@H](O)CO [Mannitol-reference, Mannitol]	Very low	Low
COc1ccc2cc([C@H](C)C(=O)O)ccc2c1 [Naproxein]	High	High
CC(C)NCC(O)COc1cccc2ccccc12 (stereo not drawn) [Propranolol--reference, Propranolol]		Moderate
